{
  "source": "patent US12421218B2",
  "about": "“Substituted pyrazine-carboxamide derivatives” (Boehringer Ingelheim International GmbH, priority 2022, dated 2025)",
  "target": "human metabotropic Glutamate 4 receptor (mGluR4) (Homo sapiens (Human), UniProt Q14833)",
  "sequence (Q14833 33-912)": "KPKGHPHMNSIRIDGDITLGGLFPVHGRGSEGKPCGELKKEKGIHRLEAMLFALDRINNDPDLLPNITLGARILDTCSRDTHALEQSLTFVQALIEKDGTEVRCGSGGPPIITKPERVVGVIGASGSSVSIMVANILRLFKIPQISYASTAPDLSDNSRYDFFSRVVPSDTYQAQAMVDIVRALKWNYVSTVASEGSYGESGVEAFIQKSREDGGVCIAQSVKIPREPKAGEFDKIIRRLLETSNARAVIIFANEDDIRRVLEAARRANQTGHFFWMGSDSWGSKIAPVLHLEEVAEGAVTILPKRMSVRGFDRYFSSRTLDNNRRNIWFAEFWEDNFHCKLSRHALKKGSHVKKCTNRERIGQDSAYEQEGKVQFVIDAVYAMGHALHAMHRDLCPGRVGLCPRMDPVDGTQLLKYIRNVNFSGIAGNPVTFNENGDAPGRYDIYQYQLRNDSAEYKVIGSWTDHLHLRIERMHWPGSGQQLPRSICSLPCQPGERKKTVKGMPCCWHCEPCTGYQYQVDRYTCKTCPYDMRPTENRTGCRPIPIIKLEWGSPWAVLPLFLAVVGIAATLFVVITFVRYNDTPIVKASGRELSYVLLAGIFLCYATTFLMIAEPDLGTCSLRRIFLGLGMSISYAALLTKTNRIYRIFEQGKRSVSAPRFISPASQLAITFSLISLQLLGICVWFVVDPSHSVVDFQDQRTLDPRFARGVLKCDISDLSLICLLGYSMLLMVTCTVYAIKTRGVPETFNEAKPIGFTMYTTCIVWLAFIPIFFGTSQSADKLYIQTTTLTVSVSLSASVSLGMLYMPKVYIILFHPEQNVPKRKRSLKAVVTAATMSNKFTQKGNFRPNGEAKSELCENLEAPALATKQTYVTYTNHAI",
  "experiment": "Assay A: In vitro testing of mGluR4 potency (cAMP HTRF, glutamate/forskolin stimulated)",
  "assay_type": "cell-based",
  "details": "HEK293 cells overexpressing human mGluR4; 10 uM L-glutamic acid, 1 uM forskolin",
  "description": "A. In Vitro Testing of mGluR4 Potency\nThe in vitro activity of the compounds according to the invention may be investigated as follows:\nThe HEK293 cell overexpressing the human metabotropic Glutamate 4 receptor are thawed at 37° C. and immediately diluted with cell culture medium. After centrifugation, the cell pellet is re-suspended in medium and then distributed from a stirred spinner flask into the wells of the assay plate. The plates are incubated for one hour at room temperature before they are incubated for 24 hours at 37° C./5% CO2. After washing the cells in the plate three times with 80 uL HBSS/HEPES buffer (10 uL buffer remained in the wells after washing), 5 uL per well of compounds diluted in HBSS/HEPES buffer containing 0.2% BSA (final concentration: 0.1%) and 1 mM IBMX (final concentration: 0.5 mM) are added to the wells of the assay plate. Thereafter 5 uL per well of L-Glutamic acid (final concentration: 10 uM), forskolin (final concentration: 1 uM) and 1 mM IBMX (final concentration: 0.5 mM) dissolved in HBSS/HEPES buffer containing 0.2% BSA (final concentration: 0.1%) are added to the assay plate (final DMSO concentration: 1%). […] The emission at 615 nm and 665 nm (Excitation wavelength: 320 nm) are measured on the EnVision™ reader (PerkinElmer). The ratio between the emission at 665 nm and 615 is calculated by the reader. […]",
  "data": [
    {"smiles": "CCn1c([C@@H](NC(=O)c2cnc(C(F)F)cn2)C(C)C)nc2cc(F)ccc21", "note": "[Example 59, 5-(difluoromethyl)-N-[(1S)-1-(1-ethyl-5-fluoro-1H-1,3-benzodiazol-2-yl)-2-methylpropyl]pyrazine-2-carboxamide]", "values": [
      {"measurement": "IC50", "value": 4, "unit": "nM"}
    ]}
  ]
}
